The target in assay [1] is EGFR (d746-750) (Homo sapiens (Human), UniProt P00533, DEL746-750). The experiment in a line: Biochemical EGFR inhibition assay, EGFR (d746-750). The conditions noted are these: Caliper mobility shift; 1.0 mM ATP or ATP Km; read-out: Enz EGFR_Exon19-del746-750 IC50.
Assay [2] has as its target EGFR L858R (Homo sapiens (Human), UniProt P00533, L858R). The experiment in a line: Biochemical EGFR inhibition assay, EGFR L858R. The following applies: Caliper mobility shift; 1.0 mM ATP or ATP Km; read-out: Enz EGFR_L858R IC50.
The target in assay [3] is pEGFR (Tyr1068) in PC-9 cells (Ex19Del) (Homo sapiens (Human), UniProt P00533, DEL746-750). The experiment in a line: PC-9 pEGFR AlphaLISA assay. The following applies: 4 hours incubation, p-EGFR (Tyr1068) AlphaLISA, read-out: Ext pEGFR_PC-9 Ex19Del IC50. Format: cell-based. In short, it runs like this: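 Readout: AlphaLISA SureFire Ultra signal in cell lysates, with acceptor beads for 1.5-2 h and donor beads overnight at room temperature in the dark. Beforehand, unstimulated cells in 10% FBS medium received compounds (10 points, 4-fold steps) for 4 h at 37° C. IC50 came from percent inhibition curves.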
Sequence of pEGFR (Tyr1068) in PC-9 cells (Ex19Del) (P00533 other isoform, or with tags, fused parts or gaps del 746-750): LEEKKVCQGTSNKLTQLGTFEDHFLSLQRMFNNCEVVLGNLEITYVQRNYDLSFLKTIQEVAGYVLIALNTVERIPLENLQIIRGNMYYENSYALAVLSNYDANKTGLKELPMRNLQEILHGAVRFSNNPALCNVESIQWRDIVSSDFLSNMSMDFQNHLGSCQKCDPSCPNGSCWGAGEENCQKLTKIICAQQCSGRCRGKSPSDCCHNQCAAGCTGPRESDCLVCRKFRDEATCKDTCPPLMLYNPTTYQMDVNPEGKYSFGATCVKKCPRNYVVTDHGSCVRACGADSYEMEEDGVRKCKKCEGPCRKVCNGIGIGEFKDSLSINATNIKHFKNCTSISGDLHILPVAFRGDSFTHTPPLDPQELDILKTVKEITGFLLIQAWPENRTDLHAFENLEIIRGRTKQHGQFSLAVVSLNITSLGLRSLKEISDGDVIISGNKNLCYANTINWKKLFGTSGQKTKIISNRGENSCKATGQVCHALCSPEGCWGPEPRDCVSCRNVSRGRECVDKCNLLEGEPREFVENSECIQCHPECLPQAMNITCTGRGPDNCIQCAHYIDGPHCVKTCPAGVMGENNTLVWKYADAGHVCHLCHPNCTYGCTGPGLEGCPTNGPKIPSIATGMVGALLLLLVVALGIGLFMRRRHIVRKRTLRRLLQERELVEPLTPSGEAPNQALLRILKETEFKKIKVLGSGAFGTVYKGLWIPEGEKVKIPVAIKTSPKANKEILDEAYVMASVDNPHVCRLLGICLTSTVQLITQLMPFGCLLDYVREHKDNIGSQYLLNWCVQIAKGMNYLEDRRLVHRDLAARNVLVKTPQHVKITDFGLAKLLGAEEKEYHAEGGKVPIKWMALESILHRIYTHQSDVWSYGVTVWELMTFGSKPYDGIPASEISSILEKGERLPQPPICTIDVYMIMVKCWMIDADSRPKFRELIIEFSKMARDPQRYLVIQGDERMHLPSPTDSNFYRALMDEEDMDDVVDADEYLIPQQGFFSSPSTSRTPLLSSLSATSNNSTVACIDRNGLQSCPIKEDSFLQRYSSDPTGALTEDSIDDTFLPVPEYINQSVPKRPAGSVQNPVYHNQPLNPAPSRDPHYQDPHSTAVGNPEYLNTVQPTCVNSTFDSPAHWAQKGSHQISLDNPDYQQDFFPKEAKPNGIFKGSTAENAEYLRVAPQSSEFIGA

Sequence of EGFR L858R (P00533 25-1210 L858R): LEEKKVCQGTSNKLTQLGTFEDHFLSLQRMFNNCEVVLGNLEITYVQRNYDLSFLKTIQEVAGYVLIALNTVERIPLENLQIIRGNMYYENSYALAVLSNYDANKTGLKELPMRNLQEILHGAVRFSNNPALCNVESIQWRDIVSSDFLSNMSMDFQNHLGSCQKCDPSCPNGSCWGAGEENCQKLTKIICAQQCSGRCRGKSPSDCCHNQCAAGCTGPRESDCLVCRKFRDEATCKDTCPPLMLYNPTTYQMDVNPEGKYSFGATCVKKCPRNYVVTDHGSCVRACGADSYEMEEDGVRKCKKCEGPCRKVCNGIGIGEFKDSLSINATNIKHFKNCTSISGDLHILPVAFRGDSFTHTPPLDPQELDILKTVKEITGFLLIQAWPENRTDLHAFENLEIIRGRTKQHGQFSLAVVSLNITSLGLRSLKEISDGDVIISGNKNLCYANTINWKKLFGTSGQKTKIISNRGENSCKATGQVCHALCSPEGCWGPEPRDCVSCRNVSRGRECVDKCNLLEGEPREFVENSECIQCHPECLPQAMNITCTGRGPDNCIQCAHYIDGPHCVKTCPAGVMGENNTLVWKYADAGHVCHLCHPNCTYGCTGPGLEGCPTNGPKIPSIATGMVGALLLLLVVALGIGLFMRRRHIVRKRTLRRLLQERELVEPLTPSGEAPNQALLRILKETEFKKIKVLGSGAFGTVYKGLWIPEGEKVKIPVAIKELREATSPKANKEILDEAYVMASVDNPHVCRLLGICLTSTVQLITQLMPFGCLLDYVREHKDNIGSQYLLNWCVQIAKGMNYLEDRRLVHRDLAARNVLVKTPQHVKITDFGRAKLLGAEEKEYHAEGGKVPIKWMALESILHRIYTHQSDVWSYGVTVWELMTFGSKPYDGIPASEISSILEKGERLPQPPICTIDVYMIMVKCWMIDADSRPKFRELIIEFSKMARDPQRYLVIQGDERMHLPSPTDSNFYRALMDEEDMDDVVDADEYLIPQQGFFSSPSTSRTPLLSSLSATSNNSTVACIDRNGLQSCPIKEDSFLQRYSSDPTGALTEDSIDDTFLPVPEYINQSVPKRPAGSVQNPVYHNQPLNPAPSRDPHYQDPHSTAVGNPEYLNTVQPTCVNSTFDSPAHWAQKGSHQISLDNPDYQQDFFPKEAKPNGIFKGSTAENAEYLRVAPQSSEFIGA
Sequence of EGFR (d746-750) (P00533 other isoform, or with tags, fused parts or gaps del 1-694/del 746-750 limits assumed): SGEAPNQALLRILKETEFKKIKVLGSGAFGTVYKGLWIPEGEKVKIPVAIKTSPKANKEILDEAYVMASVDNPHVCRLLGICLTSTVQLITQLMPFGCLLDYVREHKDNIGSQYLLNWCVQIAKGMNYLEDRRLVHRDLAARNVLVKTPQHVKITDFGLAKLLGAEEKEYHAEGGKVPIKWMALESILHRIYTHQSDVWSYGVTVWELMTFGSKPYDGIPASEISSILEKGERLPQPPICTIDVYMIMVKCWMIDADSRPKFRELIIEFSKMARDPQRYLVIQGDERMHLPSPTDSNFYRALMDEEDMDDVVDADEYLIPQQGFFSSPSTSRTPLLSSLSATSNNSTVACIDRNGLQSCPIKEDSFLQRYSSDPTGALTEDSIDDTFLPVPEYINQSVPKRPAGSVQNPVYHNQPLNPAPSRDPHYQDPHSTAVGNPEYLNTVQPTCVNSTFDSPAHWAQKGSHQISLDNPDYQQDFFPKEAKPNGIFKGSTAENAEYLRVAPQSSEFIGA

Consider `CCOc1cc2ncnc(-c3cn(CC)nc3-c3ccccc3)c2cc1[C@H](C)O` (single isomer, unassigned) [Example 107, (S)-1-(7-ethoxy-4-(1-ethyl-3-phenyl-1H-pyrazol-4-yl)quinazolin-6-yl)ethan-1-ol or (R)-1-(7-ethoxy-4-(1-ethyl-3-phenyl-1H-pyrazol-4-yl)quinazolin-6-yl)ethan-1-ol], for which the IC50 was found to be 0.6 nM in assay [1], 1.3 nM in assay [2] and 3.3 nM in assay [3].

With `COc1cc2ncnc(-c3c[nH]nc3-c3ccccc3)c2nc1NC(=O)C1(C(F)(F)F)CC1` [Example 372, N-(7-methoxy-4-(3-phenyl-1H-pyrazol-4-yl)pyrido[3,2-d]pyrimidin-6-yl)-1-(trifluoromethyl)cyclopropane-1-carboxamide], the results for the IC50 in assay [1], in assay [2] and in assay [3] were 0.7 nM, 1.6 nM and 1.5 nM, respectively.

For `CN1CCC(n2cc(-c3ccc4c(-c5c[nH]nc5-c5ccccc5)ncnc4c3)cn2)CC1` [Example 442, 7-(1-(1-methylpiperidin-4-yl)-1H-pyrazol-4-yl)-4-(3-phenyl-1H-pyrazol-4-yl)quinazoline], the IC50 was 1.1 nM in assay [1], 1.4 nM in assay [2] and 0.4 nM in assay [3].

For the compound `COc1cc2ncnc(-c3cn(C)nc3-c3ccccc3)c2nc1NC(=O)c1ccc(C2CC2)nc1` [Example 357, 6-cyclopropyl-N-(7-methoxy-4-(1-methyl-3-phenyl-1H-pyrazol-4-yl)pyrido[3,2-d]pyrimidin-6-yl)nicotinamide], the IC50 is 1.1 nM in assay [1], 2.2 nM in assay [2] and 4.4 nM in assay [3].

`COc1cc2ncnc(-c3cn(CC(F)F)nc3-c3ccccc3)c2cc1O[C@@H]1CCN(C)C[C@H]1F` [Example 3, 4-(1-(2,2-difluoroethyl)-3-phenyl-1H-pyrazol-4-yl)-6-(((3R,4R)-3-fluoro-1-methylpiperidin-4-yl)oxy)-7-methoxyquinazoline]: the figures for the IC50 in assay [1], in assay [2] and in assay [3] were 1.5 nM, 2.4 nM and 0.3 nM, respectively.

On to `CCOc1cc2ncnc(-c3cn(C)nc3-c3ccccc3)c2cc1NC(=O)c1cnn(C(F)(F)F)c1` [Example 232, N-(7-ethoxy-4-(1-methyl-3-phenyl-1H-pyrazol-4-yl)quinazolin-6-yl)-1-(trifluoromethyl)-1H-pyrazole-4-carboxamide], for which the IC50 in assay [1] worked out at 1.5 nM; in assay [2], 2.7 nM; in assay [3], 4.1 nM.

For the compound `COc1cc2ncnc(-c3cn(C)nc3-c3ccccc3)c2nc1NC(=O)C12CC(C1)C2` [Example 309, N-(7-methoxy-4-(1-methyl-3-phenyl-1H-pyrazol-4-yl)pyrido[3,2-d]pyrimidin-6-yl)bicyclo[1.1.1]pentane-1-carboxamide], the IC50 was 1.9 nM in assay [1], 3.1 nM in assay [2] and 2.8 nM in assay [3].

As for `COc1cc2ncnc(-c3cn(C)nc3-c3ccccc3)c2nc1NC(=O)[C@H](C)N(C)C` [Example 390, (S)-2-(dimethylamino)-N-(7-methoxy-4-(1-methyl-3-phenyl-1H-pyrazol-4-yl)pyrido[3,2-d]pyrimidin-6-yl) propenamide], the figures for the IC50 in assay [1], in assay [2] and in assay [3] were 3.9 nM, 9.3 nM and 8.7 nM, respectively.

In the case of `COc1cc2ncnc(-c3cn(C)nc3-c3ccccc3)c2cc1NC(=O)N1CCN(C)[C@@H](C)[C@H]1C` (single isomer, unassigned) [Example 180, (2R,3S)—N-(7-methoxy-4-(1-methyl-3-phenyl-1H-pyrazol-4-yl)quinazolin-6-yl)-2,3,4-trimethylpiperazine-1-carboxamide or (2S,3R)—N-(7-methoxy-4-(1-methyl-3-phenyl-1H-pyrazol-4-yl)quinazolin-6-yl)-2,3,4-trimethylpiperazine-1-carboxamide], the half-maximal inhibitory concentration (IC50) in assay [1] was 2.2 nM; in assay [2] it was 3.8 nM; in assay [3] it was 4 nM.

Consider `COc1cc2ncnc(-c3cn(C)nc3-c3ccccc3)c2cc1NC(=O)[C@@H]1CCCN1C` (single isomer, unassigned) [Example 243, (R)—N-(7-methoxy-4-(1-methyl-3-phenyl-1H-pyrazol-4-yl)quinazolin-6-yl)-1-methylpyrrolidine-2-carboxamide or (S)—N-(7-methoxy-4-(1-methyl-3-phenyl-1H-pyrazol-4-yl)quinazolin-6-yl)-1-methylpyrrolidine-2-carboxamide], for which the IC50 in assay [1] turned out to be 2.4 nM; in assay [2], 4.9 nM; in assay [3], 4.4 nM.

Turning to `CCn1cc(-c2ncnc3cc(OC)c(NC(=O)c4cnn(C(F)(F)F)c4)cc23)c(-c2ccccc2)n1` [Example 307, N-(4-(1-ethyl-3-phenyl-1H-pyrazol-4-yl)-7-methoxyquinazolin-6-yl)-1-(trifluoromethyl)-1H-pyrazole-4-carboxamide], the IC50 in assay [1] stood at 0.9 nM; in assay [2], 1.7 nM; in assay [3], 1.4 nM.

On to `C[C@H](O)c1cc2c(-c3cn(CC(F)F)nc3-c3ccccc3)ncnc2cc1-c1cnn(C)c1` (single isomer, unassigned) [Example 446, (S)-1-(4-(1-(2,2-difluoroethyl)-3-phenyl-1H-pyrazol-4-yl)-7-(1-methyl-1H-pyrazol-4-yl)quinazolin-6-yl)ethan-1-ol or (R)-1-(4-(1-(2,2-difluoroethyl)-3-phenyl-1H-pyrazol-4-yl)-7-(1-methyl-1H-pyrazol-4-yl)quinazolin-6-yl)ethan-1-ol], for which the IC50 in assay [1] turned out to be 0.6 nM; in assay [2] it was 0.9 nM; in assay [3] it was 0.7 nM.

Take `CCn1cc(-c2ncnc3cc(OC)c(NC(=O)[C@@]45COC[C@@H]4C5)cc23)c(-c2ccc(F)cc2)n1` [Example 334, (1R,5R)—N-(4-(1-ethyl-3-(4-fluorophenyl)-1H-pyrazol-4-yl)-7-methoxyquinazolin-6-yl)-3-oxabicyclo[3.1.0]hexane-1-carboxamide]: the half-inhibitory concentration (IC50) in assay [1] was 1.5 nM; in assay [2] it was 2.4 nM; in assay [3], 2.2 nM.

Take `COc1cc2ncnc(-c3cn(C)nc3-c3ccccc3)c2cc1NC(=O)c1ncccn1` [Example 192, N-(7-methoxy-4-(1-methyl-3-phenyl-1H-pyrazol-4-yl)quinazolin-6-yl)pyrimidine-2-carboxamide]: the IC50 is 0.7 nM in assay [1], 1.1 nM in assay [2] and 1.6 nM in assay [3].

In the case of `COc1cc2ncnc(-c3cn(CC(F)F)nc3-c3ccccc3)c2cc1OC(=O)N1CCOC[C@@H]1C` [Example 76, 4-(1-(2,2-difluoroethyl)-3-phenyl-1H-pyrazol-4-yl)-7-methoxyquinazolin-6-yl (S)-3-methylmorpholine-4-carboxylate], the IC50 came out at 0.9 nM in assay [1], 2.1 nM in assay [2] and 1.4 nM in assay [3].

Turning to `COc1cc2ncnc(-c3cn(C)nc3-c3ccccc3)c2nc1NC(=O)[C@@]1(C)CCCO1` [Example 363, (R)-N-(7-methoxy-4-(1-methyl-3-phenyl-1H-pyrazol-4-yl)pyrido[3,2-d]pyrimidin-6-yl)-2-methyltetrahydrofuran-2-carboxamide], the IC50 in assay [1] is 1.7 nM; in assay [2], 5.4 nM; in assay [3], 3.5 nM.

With `COCc1cc2c(-c3cn(C)nc3-c3ccccc3)ncnc2cc1OC` [Example 120, 7-methoxy-6-(methoxymethyl)-4-(1-methyl-3-phenyl-1H-pyrazol-4-yl)quinazoline], the IC50 in assay [1] worked out at 0.8 nM; in assay [2], 2.9 nM; in assay [3] it was 7.3 nM.

(Values after patent US20250236608A1, “EGFR INHIBITORS” (Blueprint Medicines Corporation, priority 2022, published 2025).)
